The record followed here is ChEMBL document CHEMBL3232856, “Endomorphin analogues with mixed μ-opioid (MOP) receptor agonism/δ-opioid (DOP) receptor antagonism and lacking β-arrestin2 recruitment activity” (Bioorg Med Chem, 2014).

Activity calls are given as the source filed them. The rule behind the calls is not given here. Residues, ends and D or L forms follow the SMILES beside them.

The target in series [1] is Mu-type opioid receptor (Rattus norvegicus, UniProt P33535). As to the kind of experiment: Displacement of [3H]DAMGO from mu opioid receptor in Sprague-Dawley rat brain P2 synaptosomal membranes.
Mu-type opioid receptor (Rattus norvegicus, UniProt P33535), sequence (P33535 whole entry): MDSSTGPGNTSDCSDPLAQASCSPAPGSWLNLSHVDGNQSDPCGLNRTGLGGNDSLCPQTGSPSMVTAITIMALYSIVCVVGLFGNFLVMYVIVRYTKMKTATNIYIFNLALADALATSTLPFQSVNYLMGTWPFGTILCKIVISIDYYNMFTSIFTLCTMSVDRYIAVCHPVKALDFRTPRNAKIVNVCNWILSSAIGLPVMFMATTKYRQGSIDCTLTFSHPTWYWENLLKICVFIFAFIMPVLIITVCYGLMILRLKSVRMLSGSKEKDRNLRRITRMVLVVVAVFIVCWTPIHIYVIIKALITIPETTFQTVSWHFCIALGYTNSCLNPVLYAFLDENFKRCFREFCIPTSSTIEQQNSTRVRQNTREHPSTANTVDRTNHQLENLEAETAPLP
In series [2] the target is Delta-type opioid receptor (Rattus norvegicus, UniProt P33533). The series is described as follows: Displacement of [3H]deltorphin-2 from delta opioid receptor in Sprague-Dawley rat brain P2 synaptosomal membranes.
Delta-type opioid receptor (Rattus norvegicus, UniProt P33533), sequence (P33533 whole entry): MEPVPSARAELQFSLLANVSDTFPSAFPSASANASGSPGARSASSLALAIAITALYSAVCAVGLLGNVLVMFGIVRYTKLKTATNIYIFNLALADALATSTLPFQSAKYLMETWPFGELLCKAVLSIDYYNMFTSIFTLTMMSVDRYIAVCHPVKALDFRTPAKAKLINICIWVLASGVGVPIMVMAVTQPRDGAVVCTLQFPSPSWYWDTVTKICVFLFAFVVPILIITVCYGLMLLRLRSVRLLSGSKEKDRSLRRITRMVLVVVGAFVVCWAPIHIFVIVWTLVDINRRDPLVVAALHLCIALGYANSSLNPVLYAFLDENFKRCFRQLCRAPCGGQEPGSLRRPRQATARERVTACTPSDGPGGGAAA
Series [3] concerns the target Mu-type opioid receptor (Cavia porcellus, UniProt P97266). As to the kind of experiment: Agonist activity at mu opioid receptor in guinea pig ileum assessed as inhibition of electrically-stimulated muscle contraction. It is filed as tissue-based.
The target of series [4] is Delta-type opioid receptor (Mus musculus, UniProt P32300). The series is described as follows: Agonist activity at delta opioid receptor in mouse vas deferens assessed as inhibition of electrically-stimulated muscle contraction. The series is classed as tissue-based.
Delta-type opioid receptor (Mus musculus, UniProt P32300), sequence (P32300 whole entry, the tested form may be a part): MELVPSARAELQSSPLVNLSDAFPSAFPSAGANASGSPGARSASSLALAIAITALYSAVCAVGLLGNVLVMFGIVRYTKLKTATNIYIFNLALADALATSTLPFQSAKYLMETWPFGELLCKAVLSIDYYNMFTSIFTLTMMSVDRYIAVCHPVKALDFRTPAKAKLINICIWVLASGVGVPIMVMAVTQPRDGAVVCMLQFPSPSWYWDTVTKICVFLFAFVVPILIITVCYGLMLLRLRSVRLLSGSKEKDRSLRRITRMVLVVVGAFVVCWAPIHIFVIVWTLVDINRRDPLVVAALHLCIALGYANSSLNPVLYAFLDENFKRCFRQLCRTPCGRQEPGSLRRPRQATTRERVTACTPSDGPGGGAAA
The target of series [5] is T1, Mu-type opioid receptor (Homo sapiens, UniProt P35372). As to the kind of experiment: Agonist activity at GFP-fused mu opioid receptor (unknown origin) expressed in HEK293 cells assessed as recruitment of beta-arrestin-2 after 10 mins by BRET assay. The series is classed as cell-based. (In general: Bioluminescence resonance energy transfer reports proximity on the nanometre scale.)
T1 sequence (P35372 whole entry, the tested form may be a part): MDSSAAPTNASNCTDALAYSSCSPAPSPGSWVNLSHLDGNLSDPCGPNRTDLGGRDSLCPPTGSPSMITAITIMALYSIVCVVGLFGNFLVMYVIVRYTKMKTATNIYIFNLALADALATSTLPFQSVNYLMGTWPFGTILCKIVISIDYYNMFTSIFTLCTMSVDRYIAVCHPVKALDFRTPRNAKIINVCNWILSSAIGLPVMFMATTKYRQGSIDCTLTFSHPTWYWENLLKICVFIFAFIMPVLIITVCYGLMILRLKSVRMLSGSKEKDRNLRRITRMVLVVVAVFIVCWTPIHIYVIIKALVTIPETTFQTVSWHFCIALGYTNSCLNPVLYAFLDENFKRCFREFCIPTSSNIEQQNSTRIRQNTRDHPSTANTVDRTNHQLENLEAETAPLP

Series [6] concerns the target T2, Delta-type opioid receptor (Homo sapiens, UniProt P41143). As to the kind of experiment: Agonist activity at GFP-fused delta opioid receptor (unknown origin) expressed in HEK293 cells assessed as recruitment of beta-arrestin-2 after 10 mins by BRET assay. It is filed as functional, cell-based.
Series [7] concerns the target T3, Kappa-type opioid receptor (Homo sapiens, UniProt P41145). As to the kind of experiment: Agonist activity at GFP-fused kappa opioid receptor (unknown origin) expressed in HEK293 cells assessed as recruitment of beta-arrestin-2 after 10 mins by BRET assay. The series is classed as cell-based.
The target in series [8] is T1, Mu-type opioid receptor. The settings on record: HEK293, at 1 µM.
The target in series [9] is T2, Delta-type opioid receptor. The settings on record: HEK293, at 0.1 to 10 µM.
The target in series [10] is T2, Delta-type opioid receptor. The settings on record: HEK293, at 100 µM.
Series [11] addresses T3, Kappa-type opioid receptor. As to conditions: HEK293, at 0.1 to 10 µM.
The target in series [12] is T2, Delta-type opioid receptor. The settings on record: HEK293, at 100 µM. The source holds these as a separate data set.
Series [13] addresses T1, Mu-type opioid receptor. The settings on record: HEK293, at 100 µM.
Series [14] has as its target T1, Mu-type opioid receptor. The series is described as follows: Potency index, ratio of DAMGO EC50 to compound EC50 for mu opioid receptor (unknown origin) by beta-arrestin-2 recruitment assay. A general note: Activated receptors often draw arrestin, which recruitment assays turn into a signal.
Series [15] deals with T1, Mu-type opioid receptor. The series is described as follows: Intrinsic efficacy at GFP-fused mu opioid receptor (unknown origin) expressed in HEK293 cells assessed as recruitment of beta-arrestin-2 after 10 mins by BRET assay relative to untreated control. It is filed as cell-based. The settings on record: hek293, 10 min.

T2 sequence (P41143 whole entry, the tested form may be a part): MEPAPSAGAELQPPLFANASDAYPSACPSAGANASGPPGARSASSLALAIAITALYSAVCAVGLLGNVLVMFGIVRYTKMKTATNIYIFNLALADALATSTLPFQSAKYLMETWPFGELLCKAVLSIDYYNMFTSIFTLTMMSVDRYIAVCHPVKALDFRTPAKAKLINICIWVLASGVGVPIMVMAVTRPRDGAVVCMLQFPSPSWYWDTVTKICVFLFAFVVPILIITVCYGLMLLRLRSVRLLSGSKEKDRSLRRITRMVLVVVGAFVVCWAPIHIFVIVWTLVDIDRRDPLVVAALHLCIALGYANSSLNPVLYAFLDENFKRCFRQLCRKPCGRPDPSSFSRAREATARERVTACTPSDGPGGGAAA
T3 sequence (P41145 whole entry, the tested form may be a part): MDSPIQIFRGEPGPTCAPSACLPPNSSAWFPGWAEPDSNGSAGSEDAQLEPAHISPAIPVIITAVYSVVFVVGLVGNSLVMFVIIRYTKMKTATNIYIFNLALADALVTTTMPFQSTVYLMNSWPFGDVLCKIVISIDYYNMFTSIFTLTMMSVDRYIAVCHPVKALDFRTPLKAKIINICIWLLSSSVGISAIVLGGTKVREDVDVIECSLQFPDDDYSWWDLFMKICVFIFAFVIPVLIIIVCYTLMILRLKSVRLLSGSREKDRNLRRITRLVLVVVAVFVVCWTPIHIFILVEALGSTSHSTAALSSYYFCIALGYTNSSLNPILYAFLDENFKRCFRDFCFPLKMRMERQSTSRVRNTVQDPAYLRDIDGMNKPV
Mu-type opioid receptor (Cavia porcellus, UniProt P97266), sequence (P97266 whole entry): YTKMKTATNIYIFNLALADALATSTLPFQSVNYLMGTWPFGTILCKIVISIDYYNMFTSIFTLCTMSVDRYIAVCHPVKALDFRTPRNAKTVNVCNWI

On to `Cc1cc(O)cc(C)c1C[C@H](N)C(=O)N1CCC[C@H]1C(=O)N[C@@H](Cc1ccc2ccccc2c1)C(N)=O` (HELM PEPTIDE1{[Cc1cc(O)cc(C)c1C[C@H](N)C(=O)[*:2]].P.[O=C([C@H](Cc1ccc2ccccc2c1)N[*:1])[*:2]].[am]}$$$$V2.0), for which the Ki on Mu-type opioid receptor [1] turned out to be 16.9 nM; in [2] it was 68.3 nM. Further, the IC50 (at Mu-type opioid receptor [3]; in series [4]) was above 10000 nM in each case. Moreover, the EC50 entry (at Mu-type opioid receptor [5] (hek293); in series [6]; in series [7]) was “Not Active” each time. Further, at Mu-type opioid receptor [8], the inhibition entry was “Active”. Besides, the inhibition entry in [9], in series [10], in series [11] and in series [12] was “inactive” throughout.

As to `Cc1cc(O)cc(C)c1C[C@H](N)C(=O)N1CCC[C@H]1C(=O)N[C@@H](Cc1cccc2ccccc12)C(N)=O` (HELM PEPTIDE1{[Cc1cc(O)cc(C)c1C[C@H](N)C(=O)[*:2]].P.[O=C([C@H](Cc1cccc2ccccc12)N[*:1])[*:2]].[am]}$$$$V2.0), the Ki on Mu-type opioid receptor [1] is 0.7 nM; in series [2], 121 nM. Also, the values for the IC50 (at Mu-type opioid receptor [3]; in [4]) were 4.63 nM and 10000 nM, respectively. Also, the EC50 result (at Mu-type opioid receptor [5] (hek293); in series [6]; in series [7]) was “Not Active” in each case.

Turning to `Oc1ccc2c3c1O[C@H]1c4oc5ccccc5c4C[C@@]4(O)[C@@H](C2)N(CC2CC2)CC[C@]314`, in series [10], the inhibition stood at 50%.

For the compound `Cc1cc(C)c(C[C@H](NC(=O)[C@H](Cc2ccccc2)NC(=O)[C@@H]2CCCN2C(=O)[C@@H](N)Cc2c(C)cc(O)cc2C)C(N)=O)c(C)c1`, the Ki at Mu-type opioid receptor [1] was found to be 0.37 nM; in series [2], 24.5 nM. Besides, the values for the IC50 (on Mu-type opioid receptor [3]; in [4]) were 66.7 nM and above 10000 nM, respectively. Also, the EC50 result (at Mu-type opioid receptor [5] (hek293); in [6]; in [7]) was “Not Active” in each case. Also, the inhibition entry at Mu-type opioid receptor [8] is “Active”. Also, the inhibition result (at Mu-type opioid receptor [13]; in series [9]; in series [10]; in [11]; in [12]) was “inactive” in each case.

As for `Cc1cc(C)c(C[C@H](NC(=O)[C@@H]2CCCN2C(=O)[C@@H](N)Cc2c(C)cc(O)cc2C)C(N)=O)c(C)c1`, the results for the Ki (on Mu-type opioid receptor [1]; in series [2]) were 0.13 nM and 13.1 nM, respectively. Also, the IC50 at Mu-type opioid receptor [3] was 2.68 nM; in series [4], above 10000 nM. For the same compound, the figures for the EC50 (at Mu-type opioid receptor [5] (read-out: EC50); in [6]; in series [7]) were 18.6 nM, “Not Active” and “Not Active”, respectively. The “Ratio EC50” value on Mu-type opioid receptor [14] worked out at 20. At Mu-type opioid receptor [15], the Ratio turned out to be 0.4. The inhibition entry on Mu-type opioid receptor [8] was “Active”. The inhibition entry in series [9], in series [10], in series [11] and in series [12] was “inactive” in each case.

Consider `Cc1cccc(C)c1C[C@H](NC(=O)[C@H](Cc1ccccc1)NC(=O)[C@@H]1CCCN1C(=O)[C@@H](N)Cc1c(C)cc(O)cc1C)C(N)=O`, for which the results for the Ki (at Mu-type opioid receptor [1]; in series [2]) were 0.31 nM and 40 nM, respectively. Further, the values for the IC50 (at Mu-type opioid receptor [3]; in series [4]) were 249 nM and above 10000 nM, respectively. The EC50 entry (on Mu-type opioid receptor [5] (hek293); in [6]; in series [7]) was “Not Active” each time. The inhibition result on Mu-type opioid receptor [8] was “Active”. In addition, the inhibition result (at Mu-type opioid receptor [13]; in series [9]; in series [10]; in series [11]; in series [12]) was “inactive” each time.

For the compound `Cc1cc(O)cc(C)c1C[C@H](N)C(=O)N1CCC[C@H]1C(=O)N[C@@H](Cc1ccccc1)C(=O)N[C@@H](Cc1c[nH]c2ccccc12)C(N)=O` (HELM PEPTIDE1{[Cc1cc(O)cc(C)c1C[C@H](N)C(=O)[*:2]].P.F.W.[am]}$$$$V2.0), the Ki on Mu-type opioid receptor [1] came to 0.34 nM; in series [2], 25.4 nM. Besides, the IC50 at Mu-type opioid receptor [3] is 207 nM; in [4] it was above 10000 nM. Besides, the EC50 entry (at Mu-type opioid receptor [5] (hek293); in [6]; in series [7]) was “Not Active” in each case. In addition, at Mu-type opioid receptor [8], the inhibition entry was “Active”. For the same compound, the inhibition entry (at Mu-type opioid receptor [13]; in series [9]; in [10]; in [11]; in series [12]) was “inactive” each time.

Consider `Cc1cc(C)c(C[C@H](NC(=O)[C@H](Cc2c(C)cc(C)cc2C)NC(=O)[C@@H]2CCCN2C(=O)[C@@H](N)Cc2c(C)cc(O)cc2C)C(N)=O)c(C)c1`, for which the Ki turned out to be 0.47 nM at Mu-type opioid receptor [1] and 1.63 nM in series [2]. Further, the IC50 at Mu-type opioid receptor [3] was 9.28 nM; in [4], above 10000 nM. Moreover, the EC50 result (on Mu-type opioid receptor [5] (hek293); in series [6]; in series [7]) was “Not Active” each time. The inhibition result (on Mu-type opioid receptor [8]; in series [10]; in series [12]) was “Active” in each case. Besides, the inhibition entry in [9] and in [11] was “inactive” each time.

Take `Cc1cccc(C)c1C[C@H](NC(=O)[C@@H]1CCCN1C(=O)[C@@H](N)Cc1c(C)cc(O)cc1C)C(N)=O` (HELM PEPTIDE1{[Cc1cc(O)cc(C)c1C[C@H](N)C(=O)[*:2]].P.[Cc1cccc(C)c1C[C@H](N[*:1])C(=O)[*:2]].[am]}$$$$V2.0): the Ki was 0.15 nM at Mu-type opioid receptor [1] and 33 nM in series [2]. The IC50 on Mu-type opioid receptor [3] turned out to be 0.274 nM; in [4], 745 nM. Also, the EC50 entry (on Mu-type opioid receptor [5] (hek293); in series [6]; in series [7]) was “Not Active” throughout.

In the case of `Cc1cc(O)cc(C)c1C[C@H](NC(=O)[C@H](Cc1ccccc1)NC(=O)[C@@H]1CCCN1C(=O)[C@@H](N)Cc1c(C)cc(O)cc1C)C(N)=O` (HELM PEPTIDE1{[Cc1cc(O)cc(C)c1C[C@H](N)C(=O)[*:2]].P.F.[Cc1cc(O)cc(C)c1C[C@H](N[*:1])C(=O)[*:2]].[am]}$$$$V2.0), the Ki is 0.28 nM on Mu-type opioid receptor [1] and 87.2 nM in series [2]. The figures for the IC50 (at Mu-type opioid receptor [3]; in series [4]) were 44.6 nM and above 10000 nM, respectively. For the same compound, the EC50 result (at Mu-type opioid receptor [5] (hek293); in [6]; in series [7]) was “Not Active” throughout. Also, on Mu-type opioid receptor [8], the inhibition entry was “Active”. The inhibition entry (on Mu-type opioid receptor [13]; in series [9]; in [10]; in series [11]; in series [12]) was “inactive” each time.

`Cc1cc(O)cc(C)c1C[C@H](N)C(=O)N1CCC[C@H]1C(=O)N[C@@H](Cc1ccccc1)C(=O)N[C@@H](Cc1cccc2ccccc12)C(N)=O` (HELM PEPTIDE1{[Cc1cc(O)cc(C)c1C[C@H](N)C(=O)[*:2]].P.F.[O=C([C@H](Cc1cccc2ccccc12)N[*:1])[*:2]].[am]}$$$$V2.0): the Ki at Mu-type opioid receptor [1] stood at 0.28 nM; in series [2], 51.7 nM. The IC50 at Mu-type opioid receptor [3] was 14.3 nM; in [4], above 10000 nM. Besides, the EC50 entry (at Mu-type opioid receptor [5] (hek293); in [6]; in series [7]) was “Not Active” each time. In addition, on Mu-type opioid receptor [8], the inhibition entry was “Active”. The inhibition result in series [9], in series [10], in [11] and in [12] was “inactive” in each case.

On to `Cc1cc(O)cc(C)c1C[C@H](N)C(=O)N1CCC[C@H]1C(=O)N[C@@H](Cc1ccccc1)C(=O)N[C@@H](Cc1ccc2ccccc2c1)C(N)=O` (HELM PEPTIDE1{[Cc1cc(O)cc(C)c1C[C@H](N)C(=O)[*:2]].P.F.[O=C([C@H](Cc1ccc2ccccc2c1)N[*:1])[*:2]].[am]}$$$$V2.0), for which the values for the Ki (at Mu-type opioid receptor [1]; in series [2]) were 0.81 nM and 23.2 nM, respectively. Moreover, the IC50 on Mu-type opioid receptor [3] was 40.2 nM; in [4] it was above 10000 nM. Moreover, the EC50 entry (at Mu-type opioid receptor [5] (hek293); in series [6]; in [7]) was “Not Active” each time. Also, the inhibition entry on Mu-type opioid receptor [8] and on Mu-type opioid receptor [13] was “Active” throughout. Moreover, the inhibition result in series [9], in series [10], in [11] and in series [12] was “inactive” throughout.

In the case of `C[C@@H](NC(=O)[C@@H](N)Cc1ccc(O)cc1)C(=O)NCC(=O)N(C)[C@@H](Cc1ccccc1)C(=O)NCCO`, on Mu-type opioid receptor [8], the inhibition result was “Active”.

For orientation: Ki means a dissociation constant, usually derived from enzyme kinetics or from competition with a known ligand. Low readings indicate tighter binding, high ones weaker binding. A word on the IC50: it is the concentration that inhibits the measured activity by half. One may read the EC50 as the concentration giving half of the maximal effect. What is called inhibition is the drop in the measured response relative to a control, in per cent.
